# In patent US20100160391A1, “Substituted Aminopyridines as Fluorescent Reporters for Amide Hydrolases” (priority 2006, published 2010):
# How the values were obtained:
# [1] = test system: amidases, microsomes from High Five cells; assay: Specific activity, microsomes from High Five cells; settings: pH 8.0, 37° C.; NM = not measurable at the same protein concentration as other substrates
# Procedure: Preparation of recombinant human FAAH. Transgenic expression of the human FAAH in a baculovirus system was performed by following the method described in Nishi et al., Arch. […] The cDNA encoding human FAAH (GenBank Accession No. NM—001441) was amplified by PCR using a human liver cDNA library (Invitrogen; Carlsbad, Calif.) as a template. The primer pair was 5′-[sequence]-3′ and 5′-[sequence]-3′. BglII and EcoRI endonuclease sites (underlined) were incorporated just upstream of the start codon and downstream of the stop codon of the coding sequence of FAAH, respectively. The PCR products were cloned into a pCR2.1 vector (Invitrogen) and the nucleotide sequence was verified by DNA sequencing. The cDNA fragments were then excised and directionally ligated to the BglII and EcoRI sites of the baculovirus transfer vector pAcUW21 (Lopez-Ferber et al., Baculovirus transfer vectors, in “Baculovirus Expression Protocols,” Richardson (Ed.), pp 25-63, Humana Press, Totowa, N.J., 1995). Recombinant baculoviruses harboring the human FAAH gene, Ac-hFAAH, were generated by co-transfection of Spodoptera frugiperda-derived Sf21 cells with the recombinant transfer vector plasmid and Bsu36I-cleaved BacPAK6 viral DNA (Clontech Laboratories; Mountain View, Calif.) as described in O'Reilly et al., Baculovirus Expression Vectors: A Laboratory Manual, Oxford University Press, New York, 1992. Trichoplusia ni-derived High Five cells (1×10^6 cells/ml) were inoculated with a high titer of Ac-hFAAH. At 72 hours post-infection, the infected cells were harvested by centrifugation at 2,000×g for 20 min at 4° C. and suspended in 50 mM Tris-HCl (pH 8.0) containing 150 mM NaCl, 1 mM EDTA, 1 μM pepstatin, 100 μM leupeptin, and 0.1 mg/ml aprotinin. The cell suspension was then homogenized using a Polytron homogenizer and centrifuged at 10,000×g for 20 min at 4° C. […]
# Comparison of the lowest detection limits of protein concentration of FAAH toward colorimetric and fluorescent substrates. […] The lowest detection limits of microsomal fatty acid amide hydrolase (FAAH) by substrates were determined by the fact that the signal at 10 min after kinetic measurements are equal to or over three times the noise or basal line at 0 min. Colorimetric substrate (16) assays were performed in clear 96-well microtititer plates using an absorbance wavelength at 382 nm. The fluorescent substrates containing 5-amino-2-methoxypyridine (e.g., 10, 13) were measured at an excitation wavelength (302 nm), emission wavelength (396 nm), and auto cutoff wavelength (325 nm). Similarly, the fluorescent substrates containing 5-amino-2-methoxy-6-methylpyridine (e.g., 11, 14, and 17) were measured at an excitation wavelength (304 nm), emission wavelength (392 nm), and an auto cutoff wavelength of 325 nm. […]
# [2] = target: T1, fatty acid amide hydrolase (FAAH) (Homo sapiens, UniProt O00519); assay: Kinetic study of FAAH toward substrates; assay type: biochemical
# T1 construct: made in house; host or cells: Trichoplusia ni High Five cells infected with recombinant baculovirus Ac-hFAAH; microsomal fraction
# T1 sequence (O00519 1-579): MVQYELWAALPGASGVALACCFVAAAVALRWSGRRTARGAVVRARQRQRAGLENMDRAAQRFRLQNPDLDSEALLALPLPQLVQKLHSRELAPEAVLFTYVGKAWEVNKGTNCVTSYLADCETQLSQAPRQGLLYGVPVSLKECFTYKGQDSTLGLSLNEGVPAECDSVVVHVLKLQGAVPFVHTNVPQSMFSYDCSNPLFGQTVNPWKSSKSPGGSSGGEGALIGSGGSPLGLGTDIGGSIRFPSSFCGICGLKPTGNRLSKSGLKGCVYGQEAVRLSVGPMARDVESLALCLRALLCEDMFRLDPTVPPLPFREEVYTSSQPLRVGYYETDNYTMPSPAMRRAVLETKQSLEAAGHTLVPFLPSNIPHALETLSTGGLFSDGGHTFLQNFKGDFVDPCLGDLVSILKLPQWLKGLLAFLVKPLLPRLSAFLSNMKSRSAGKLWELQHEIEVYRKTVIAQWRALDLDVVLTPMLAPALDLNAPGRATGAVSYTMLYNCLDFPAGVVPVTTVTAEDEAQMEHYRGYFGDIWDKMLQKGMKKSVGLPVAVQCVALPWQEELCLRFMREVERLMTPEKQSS
# Procedure: Preparation of recombinant human FAAH. Transgenic expression of the human FAAH in a baculovirus system was performed by following the method described in Nishi et al., Arch. Biochem. Biophys., 445:115-123 (2006). The cDNA encoding human FAAH (GenBank Accession No. NM_001441) was amplified by PCR using a human liver cDNA library (Invitrogen; Carlsbad, Calif.) as a template. The primer pair was 5′-[…]-3′ and 5′-[…]-3′. BglII and EcoRI endonuclease sites (underlined) were incorporated just upstream of the start codon and downstream of the stop codon of the coding sequence of FAAH, respectively. The PCR products were cloned into a pCR2.1 vector (Invitrogen) and the nucleotide sequence was verified by DNA sequencing. The cDNA fragments were then excised and directionally ligated to the BglII and EcoRI sites of the baculovirus transfer vector pAcUW21 (Lopez-Ferber et al., Baculovirus transfer vectors, in “Baculovirus Expression Protocols,” Richardson (Ed.), pp 25-63, Humana Press, Totowa, N.J., 1995). Recombinant baculoviruses harboring the human FAAH gene, Ac-hFAAH, were generated by co-transfection of Spodoptera frugiperda-derived Sf21 cells with the recombinant transfer vector plasmid and Bsu36I-cleaved BacPAK6 viral DNA (Clontech Laboratories; Mountain View, Calif.) as described in O'Reilly et al., Baculovirus Expression Vectors: A Laboratory Manual, Oxford University Press, New York, 1992. Trichoplusia ni-derived High Five cells (1×10^6 cells/ml) were inoculated with a high titer of Ac-hFAAH. At 72 hours post-infection, the infected cells were harvested by centrifugation at 2,000×g for 20 min at 4° C. and suspended in 50 mM Tris-HCl (pH 8.0) containing 150 mM NaCl, 1 mM EDTA, 1 μM pepstatin, 100 μM leupeptin, and 0.1 mg/ml aprotinin. The cell suspension was then homogenized using a Polytron homogenizer and centrifuged at 10,000×g for 20 min at 4° C. The microsomal fraction was collected by ultracentrifugation of the supernatant at 100,000×g for 60 min at 4° C. The pellet was resuspended in 20 mM Tris-HCl (pH 8.0) containing 10% (w/v) glycerol and 1% (w/v) Triton-X 100 and stored at −80° C. until use.
# Kinetic study. The kinetic assays were also performed as described above for the sensitivity assay. Briefly, a total volume of 201 μl contained 0.1 M sodium phosphate buffer (pH 8.0) (190 μl) with 1% glycerol and 0.1% Triton-X 100, protein solution (10 μl), and substrate solution (1 μl). The protein content was 0.67 μg per well (201 μl). The concentration of substrate (13) in DMSO was 200, 100, 50, 25, 12.5, 6.25, 3.13, 1.56, or 0.78 μM. Similarly, the concentration of substrate (17) in DMSO was 100, 50, 25, 12.5, 6.25, 3.13, 1.56, 0.78, or 0.39 μM. Four replicates were applied for each concentration. Reported kinetic data (km and Vmax) were analyzed by the SigmaPlot Enzyme Kinetics software (2001) using the Michaelis-Menten equation for all concentrations.
# [3] = pH 8.0, 37° C., 0.67 μg protein per well, Michaelis-Menten
structure (smiles),measurement,setting,value
"CCCCCCCC(=O)Nc1ccc(OC)nc1 [Compound 13, N-(6-methoxypyridin-3-yl) octanamide]",melting point,,61.2 to 61.7 °C
same,"Specific activity, Microsomes from High Five cells",[1],793 ± 38.9 pmol/min/mg protein
same,Selectivity ratio,[2]; Vmax/Km of substrate over that of oleamide (5.5 × 10^−2),74.5
same,Km,[2]; [3],74.9 µM
same,Vmax,[2]; [3],305 nmol/min/mg
same,difference in Vmax between (13) and (17),[2]; saturating substrate concentration,8 fold
